Results from patent US8158811B2, “Unsaturated fatty hydroxy acid derivatives and the dermocosmetologic use thereof” (Pierre Fabre Dermo-Cosmetique, priority 2005, dated 2012).

Assays:
[1] = test system: intracellular AOSs, fibroblast line L929; assay: in vitro assay of intracellular AOSs (H2DCF-DA probe) after H2O2/iron oxidative stress; assay type: cell-based, murin; conditions: pre-incubation 3 h, L929
Text: We set up an in vitro study model of oxidative stress induced by H2O2/iron as H2O2 generates huge amounts of intracellular AOSs as a result of a chain reaction triggered by oxidation of membrane lipids.
This technique is based on the use of a fluorescent probe, 6-carboxy-2′,7′-dichlorodihydro fluorescein diacetate, di (acetoxymethyl ester) (H2DCF-DA) which once it penetrates into the cell is deacetylated by intracellular esterases and thus forms H2DCF. This product is oxidized by intracellular AOSs into a highly fluorescent compound: 2′,7′-dichlorofluorescein (DCF) (Suematsu M et al., 1996, Free Radicals Practical Approach, Punchard ed. P 83-99).
The materials and methods used for in vitro assay of intracellular AOSs are given below. • a) Cell tool • Cutaneous murin fibroblast cell line L929. • b) Materials • 96 well flat based microplate. • Cytofluor II cytofluorameter: Ref. PERCEPTIVE BIOSYSTEMS. • c) Reagents • Cell culture reagents: • Dulbecco's Modified Eagle Medium as the culture medium (DMEM) • Foetal calf serum • Phosphate buffer PBS pH 7.4 • Trypsin EDTA (1X) Fluorescent probe • 6-carboxy-2′,7′-dichlorodihydrofluorescein diacetate, di(acetoxymethyl ester) (PM.675,43) Cell stimulation products • Hydrogen peroxide (H2O2) 3% Ref. GIFRER (Gifrer Barbezat Laboratory) • Ferrous ammonium sulphate (Fe^2+) • Ferric ammonium sulphate (Fe^3+) • d) Products tested:
For the evaluation of unsaturated fatty hydroxy acid derivatives, the dilutions are prepared in freshly prepared culture medium for a concentration range of 0.02, 0.2, 2 and 20 ng/ml. • e) Protocol. Cell culturing.
Cells from the fibroblast line L929 were cultured in 96-well flat base microplates in 100 μl of DMEM supplemented with 10% foetal calf serum. These were incubated overnight at 37° C. in a humid atmosphere at 5% CO2. The blank plate without cells was evaluated using 6 wells.
Dilutions of the products to be tested and reference molecule were made up in culture medium without foetal calf serum then deposited in 7 wells at a rate of 100 μl per well.
Cells were then incubated for 3 hours at 37° C. in a humid atmosphere at 5% CO2.
Cells were rinsed in PBS 1X at a rate of 100 μl per well. They were then incubated for 30 minutes at 37° C. in a humid atmosphere at 5% CO2 with 50 μl of the H2DCF-DA probe at 5 μM.
After 30 minutes of contact with the probe alone, cells were incubated for 30 minutes at 37° C. in a humid atmosphere at 5% CO2 with the addition of 25 μl of H2O2 at 800 μM and 25 μl of ferrous iron and ferric iron solution at 8 mM in order to obtain final concentrations of 200 μM of H2O2 and 2 mM of ferrous iron and ferric iron.
Cells were then rinsed with PBS 1X at a rate of 100 μl per well then incubated for 30 minutes at 37° C. in a humid atmosphere at 5% CO2 with 100 μl of PBS 1X.
This incubation for 1 h 30 minutes at 37° C. allows intracellular esterases to deacetylate the probe into H2DCF which can be oxidized by the intracellular AOSs into DCF: a fluorescent compound whose formation is proportional to the quantity of intracellular AOSs.
The intensity of fluorescence is read on a cytofluorimeter at λexcitation=485 nm and λemission=530 nm. This reflects the amount of intracellular AOS produced.
The ratio below makes it possible to calculate the % protection against the production of intracellular AOSs for each product concentration tested (because the intensity of fluorescence or IF reflects the release of intracellular AOSs)
• Pre-incubation: 3 h • Number of tests=3 for all compounds. • Number of tests=18 for vit. E

desaturase DES2 = assay: keratinocyte differentiation, real-time RT-PCR of DES2 transcripts; assay type: cell-based, human; conditions: NHK, 48 hours
Description: (§1) Normal human keratinocytes (NHK) proliferate and differentiate in vitro, forming stratified layers which mimic the basal organisation of the skin. Extracellular calcium concentrations in excess of 0.1 mM initiate a cascade of genome and non-genome events which take the keratinocytes from a proliferative phase towards a differentiation phase. Keratinocyte differentiation can then be evaluated by studying the expression of several markers such as keratins 1 and 10, transglutaminase 1, desaturase DES2, involucrine, FATP4 and ABCG1 transporters. We therefore evaluated the effect of certain hydroxyalcene carboxylic acids in an in vitro culture model.
(§2) Normal human keratinocytes are isolated from skin explants. They are cultured in KSFM medium (Gibco) with a low calcium content (0.1 mM) containing 25 μg/ml of BPE (bovine pituitary extract) and […] of EGF (epithelium growth factor). 24 hours after culturing, differentiation is triggered by the addition of calcium (final concentration 1.2 mM). The active ingredients are added or not at the same time as calcium at concentrations of 100 and 1 μg/ml in order to determine whether or not they have a potentialising effect on differentiation. Cells were then analysed 48 hours after the addition of calcium and these products.
(§3) Total RNA was extracted under cold conditions from keratinocytes.
(§4) After reverse transcription of mRNA into cDNA, PCRs were made up in 96 well plates (iCycler quantitative PCR apparatus, BioRad). Expression of transcripts of transglutaminase, desaturase (DES2), ABCG1 and FATP4 were standardized with respect to the expression of reference genes (GAPDH, UBC, HPRT).

FATP4 = assay: keratinocyte differentiation, real-time RT-PCR of FATP4 transcripts; assay type: cell-based, human; conditions: NHK, 48 hours
Description: as §1, §2, §3, §4

Interleukin 8 = assay: release of Interleukin 8 by keratinocytes NHK stimulated with PMA + calcium ionophore A23187 (ELISA); assay type: cell-based, human; conditions: for % inhibition of IL-8 release: 3 μg/ml, keratinocytes, PMA + A23187 6 hours; for % Inhibition a 3 μg/ml: IL8 release, NHK, PMA + A23187
Description: In this study, carried out using 96 well plates, we evaluated the activity of hydroxyl alkine acids on the production of Interleukin 8 produced in the keratinocytes by phorbol ester PMA and calcium ionophore A23187.
A suspension of keratinocytes in supplemented KSFM was divided between 96 well plates (3.10^4 cells/wells) and incubated for 16 hours at 37° C. under an atmosphere of 5% CO2. The keratinocytes were then rinsed with PBS in order to eliminate non adhering cells then exposed to the products to be tested included in non supplemented KSFM (which could interfere with the assay).
The concentration tested in culture was 3 μg/ml. This was retained after a preliminary test to evaluate cytotoxicity (neutral red) and is not cytotoxic.
3 wells were used for each treatment. Cells were preincubated for 60 minutes with the products to be tested then stimulated, in parallel to negative controls without stimulant: Phorbol Myristate Acetate (PMA) 1 μm+Calcium ionophore (A23187) 0.1 μm.
Incubation for 6 hours at 37° C. in a humid air atmosphere containing 5% CO2.
The culture medium for each of the wells was recovered, centrifuged at 3000 rpm and stored at −80° C.
Cytokine assay: IL8 was assayed using the ELISA kit immunoenzyme method (immunotech).
The results are given as percentage activity/stimulated control.
The compounds according to the invention were evaluated in terms of anti-inflammatory activity on the release of Interleukin 8 by human keratinocytes NHK stimulated by phorbol ester PMA+calcium ionophore A23187.

| Induction Factor vs Control (CaCl2 1.2 mM) DES2 (desaturase DES2; 1 μg/ml) | Induction Factor vs Control (CaCl2 1.2 mM) DES2 (desaturase DES2; 100 μg/ml) | Structure (SMILES) | Percentage inhibition of the intracellular production of AOS ([1]; 0.02 ng/ml) [%] | Percentage inhibition of the intracellular production of AOS ([1]; 0.2 ng/ml) [%] | Percentage inhibition of the intracellular production of AOS ([1]; 2 ng/ml) [%] | Percentage inhibition of the intracellular production of AOS ([1]; 20 ng/ml) [%] | Induction Factor vs Control (CaCl2 1.2 mM) FATP4 (FATP4; 1 μg/ml) | Induction Factor vs Control (CaCl2 1.2 mM) FATP4 (FATP4; 100 μg/ml) | % inhibition of IL-8 release (Interleukin 8) | % Inhibition a 3 μg/ml (Interleukin 8) [%] |
| --- | --- | --- | --- | --- | --- | --- | --- | --- | --- | --- |
| 1.6 | 2.4 | O=C(O)C=CCCCCO [n=3, R=H, Rn=H, R1=H] | 21 | 15 | 11 | 14 | 1.4 | 1.2 | 50% | – |
| 2.0 | 125.8 | O=C(O)/C=C/CCCCCCCCCCCO [n=10, R=H, Rn=H, R1=H, 14-hydroxy-tetradec-2t-enoic acid] | 11 | 4 | −20 | −34 | 1.2 | 5.9 | 30% | – |
| 2.2 | 3.2 | O=C(O)C(F)=CCCCCCO (mixture of isomers) [n=4, R=H, Rn=H, R1=F] | 10 | 6 | −4 | −36 | 1.3 | 1.4 | Non-active | – |
| 9.0 | – | O=C(O)C(F)=CCCCCCCCCCCCCCCO [n=13, R=H, Rn=H, R1=F, 17-hydroxy-heptadec-2-fluoro-2-enoic acid] | 36 | 28 | 14 | −9 | 2.2 | – | 107% | 107 |
| 3.0 | – | O=C(O)/C=C/CCCCCCCCCCCCCCO [n=13, R=H, Rn=H, R1=H, 17-hydroxy-heptadec-2t-enoic acid] | 3 | 13 | −1 | −10 | 1.4 | – | 62% | 62 |
| 1.0 | 2.2 | O=C(O)C=CCCCCCO [n=4, R=H, Rn=H, R1=H] | 17 | 9 | 9 | 0 | 1.0 | 1.4 | 15% | – |
| 1.6 | 16.0 | O=C(O)C(F)=CCCCCCCCCCCCO [n=10, R=H, Rn=H, R1=F, 14-hydroxy-tetradec-2-fluoro-2-enoic acid] | 29 | 16 | 0 | −19 | 1.0 | 2.3 | 30% | – |
| 1.8 | 51.7 | O=C(O)/C=C/CCCCCCCCCCO [n=9, R=H, Rn=H, R1=H, 13-hydroxy-tridec-2t-enoic acid] | 9 | 10 | 6 | −22 | 1.2 | 4.5 | 16% | – |
